Measurements taken from article PMC10746543, “Design principles for cyclin K molecular glue degraders” (Nature Chemical Biology, 2023).
Values joined by “and” are separate entries in the source; they are usually repeats but may differ in a detail not shown here. Identical values can stand only once. Like-named read-outs stand apart in the source and are kept apart here.

Legend:
[1] = tested on: HEK293T cells; experiment: Drug sensitivity assay (CellTiter-Glo viability) with or without MLN4924 pretreatment; type: cell-based, human; conditions: for EC50: Homo sapiens, HEK-293T
Outline: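 Viability of HEK293T–Cas9 cells was compared after 3-day drug treatment with or without 100 nM MLN4924 pretreatment (2 h, versus DMSO). Values are CellTiter-Glo signals relative to DMSO controls.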

[2] = biological target: T1, CDK12–cyclin K and DDB1 (Homo sapiens, UniProt Q16531+Q9NYV4, K965R); experiment: TR-FRET Kd determination, quadratic fit, 50 nM or 10 nM CDK12–cyclin K; type: binding; conditions: for Kd: n = 1
T1 construct: His6–CDK12 (a.a. 713–1,052); full-length or beta-propeller B domain deletion (ΔBPB: a.a. 396–705 deleted) constructs of His6–DDB1ΔBPB, StrepII–Avi–DDB1, or His6–Spy–DDB1; made in house; host or cells: Trichoplusia ni High Five insect cells (baculovirus)
T1 sequence (Q9NYV4 713-1052 K965R): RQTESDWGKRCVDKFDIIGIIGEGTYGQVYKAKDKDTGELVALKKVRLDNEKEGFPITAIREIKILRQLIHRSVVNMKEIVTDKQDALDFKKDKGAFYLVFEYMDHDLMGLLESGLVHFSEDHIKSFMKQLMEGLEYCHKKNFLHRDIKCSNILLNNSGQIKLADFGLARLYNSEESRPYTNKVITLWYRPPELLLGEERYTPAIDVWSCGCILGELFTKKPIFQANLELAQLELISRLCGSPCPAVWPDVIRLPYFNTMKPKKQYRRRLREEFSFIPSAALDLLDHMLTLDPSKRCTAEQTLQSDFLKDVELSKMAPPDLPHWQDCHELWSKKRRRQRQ
T1 sequence (O75909 1-267 partner): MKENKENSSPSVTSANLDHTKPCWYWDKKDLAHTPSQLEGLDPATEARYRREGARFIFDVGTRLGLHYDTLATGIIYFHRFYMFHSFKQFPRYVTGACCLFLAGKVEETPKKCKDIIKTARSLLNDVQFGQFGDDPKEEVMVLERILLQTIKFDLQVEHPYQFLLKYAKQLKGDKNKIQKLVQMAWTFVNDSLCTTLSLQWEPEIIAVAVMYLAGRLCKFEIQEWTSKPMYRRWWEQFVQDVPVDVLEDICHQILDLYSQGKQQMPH
T1 sequence (Q16531 whole entry): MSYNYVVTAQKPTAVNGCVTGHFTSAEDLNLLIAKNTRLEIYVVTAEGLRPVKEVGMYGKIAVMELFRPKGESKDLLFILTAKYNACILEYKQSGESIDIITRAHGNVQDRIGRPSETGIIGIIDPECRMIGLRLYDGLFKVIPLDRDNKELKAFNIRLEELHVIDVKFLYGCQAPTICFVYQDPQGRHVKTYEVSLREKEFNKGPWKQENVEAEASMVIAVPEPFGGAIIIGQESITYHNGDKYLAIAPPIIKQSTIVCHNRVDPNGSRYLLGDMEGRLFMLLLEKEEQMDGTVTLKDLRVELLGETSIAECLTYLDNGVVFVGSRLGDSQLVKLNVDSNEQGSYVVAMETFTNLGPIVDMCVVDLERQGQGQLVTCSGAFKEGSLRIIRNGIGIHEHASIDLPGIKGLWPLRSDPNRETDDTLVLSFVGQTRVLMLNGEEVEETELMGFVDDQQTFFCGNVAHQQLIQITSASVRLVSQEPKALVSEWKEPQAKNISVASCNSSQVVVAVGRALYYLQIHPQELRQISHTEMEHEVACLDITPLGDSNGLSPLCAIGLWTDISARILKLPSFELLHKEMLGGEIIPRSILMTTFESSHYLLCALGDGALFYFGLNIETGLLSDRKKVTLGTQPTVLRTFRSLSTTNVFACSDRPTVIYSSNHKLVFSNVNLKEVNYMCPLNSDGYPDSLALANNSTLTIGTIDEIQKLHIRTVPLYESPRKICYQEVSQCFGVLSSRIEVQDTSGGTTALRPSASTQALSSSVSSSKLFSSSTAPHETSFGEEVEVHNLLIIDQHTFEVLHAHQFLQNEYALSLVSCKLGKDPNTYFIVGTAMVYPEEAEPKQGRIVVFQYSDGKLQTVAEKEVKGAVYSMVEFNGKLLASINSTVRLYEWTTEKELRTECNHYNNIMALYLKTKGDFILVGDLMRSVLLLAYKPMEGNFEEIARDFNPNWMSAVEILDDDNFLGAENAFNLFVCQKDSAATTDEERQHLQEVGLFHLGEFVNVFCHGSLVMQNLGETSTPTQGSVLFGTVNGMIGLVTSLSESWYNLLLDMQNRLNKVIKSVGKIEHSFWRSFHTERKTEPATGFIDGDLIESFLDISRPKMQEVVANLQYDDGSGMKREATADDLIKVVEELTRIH
Excerpt: Equation (2) is a quadratic binding equation used for Kd determination,where Top and Bottom refer to the curve plateaus. […]

[3] = biological target: T1, CDK12–cyclin K and DDB1; experiment: TR-FRET ternary complex formation assay (compound titration); type: binding
Outline: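 Delayed (70 μs) time-resolved read; FRET computed as 520 nm over 490 nm emission.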

[4] = tested on: cyclin K–eGFP degradation reporter; experiment: Cyclin K reporter stability analysis (dual-color cyclin K–eGFP reporter); type: cell-based, human; conditions: Supplementary Table 2; HEK293T cycK-eGFP reporter, 5 h; read-out: Cellular assays DC50
Outline: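 Readout was the eGFP-to-mCherry geometric-mean ratio by flow cytometry, normalized to three DMSO controls, after 5 h drug exposure. Cells used were HEK293T–Cas9 expressing the dual-colour cyclin K–eGFP degradation reporter.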

CCC(CO)Nc1nc(NCc2ccc(-c3ccccc3)cc2)c2ncn(C(C)C)c2n1 (centres unmarked) [DS16]
EC50 ([1]; Supplementary Fig. 5, HEK293T, CellTiter Glo, 72h, pre-treatment with 100 nM MLN4924, read-out: Viability EC50, with MLN4924): 15 µM
EC50 ([1]; Supplementary Table 2, HEK293T viability, 72 h, compound alone, read-out: Cellular assays EC50): 0.6 µM
% MLN4924 rescue ([1]; PCA input): 1490%
Toxicity rescue ([1]; Supplementary Table 2, MLN4924-mediated cytotoxicity rescue, 10 µM used where n.d.): 1567%
Kd ([2]; 10 nM CDK12-cyclin K + 100 nM DDB1): 0.004 ± 0.001 µM
TR-FRET signal ([2]; 10 nM CDK12-cyclin K, compound 0.468 nM): 0.1087
TR-FRET signal ([2]; 10 nM CDK12-cyclin K, compound 2.16 nM): 0.1516
TR-FRET signal ([2]; 10 nM CDK12-cyclin K, compound 3.6 nM): 0.2175
TR-FRET signal ([2]; 10 nM CDK12-cyclin K, compound 7.92 nM): 0.2964
TR-FRET signal ([2]; 10 nM CDK12-cyclin K, compound 15.84 nM): 0.3471
TR-FRET signal ([2]; 10 nM CDK12-cyclin K, compound 30.96 nM): 0.4043
TR-FRET signal ([2]; 10 nM CDK12-cyclin K, compound 62.6399 nM): 0.4639
TR-FRET signal ([2]; 10 nM CDK12-cyclin K, compound 125.279 nM): 0.4363
TR-FRET signal ([2]; 10 nM CDK12-cyclin K, compound 244.8 nM): 0.4586
TR-FRET signal ([2]; 10 nM CDK12-cyclin K, compound 993.6 nM): 0.4753
TR-FRET signal ([2]; 10 nM CDK12-cyclin K, compound 2001.6 nM): 0.4769
Kd ([2]; 50 nM CDK12-cyclin K + 100 nM DDB1): 0.006 ± 0.002 µM
TR-FRET signal ([2]; 50 nM CDK12-cyclin K, compound 0.468 nM): 0.2249
TR-FRET signal ([2]; 50 nM CDK12-cyclin K, compound 2.16 nM): 0.2842
TR-FRET signal ([2]; 50 nM CDK12-cyclin K, compound 3.6 nM): 0.3938
TR-FRET signal ([2]; 50 nM CDK12-cyclin K, compound 7.92 nM): 0.6539
TR-FRET signal ([2]; 50 nM CDK12-cyclin K, compound 15.84 nM): 1.0227
TR-FRET signal ([2]; 50 nM CDK12-cyclin K, compound 30.96 nM): 1.706
TR-FRET signal ([2]; 50 nM CDK12-cyclin K, compound 62.6399 nM): 2.089
TR-FRET signal ([2]; 50 nM CDK12-cyclin K, compound 125.279 nM): 2.303
TR-FRET signal ([2]; 50 nM CDK12-cyclin K, compound 244.8 nM): 2.498
TR-FRET signal ([2]; 50 nM CDK12-cyclin K, compound 993.6 nM): 2.704
TR-FRET signal ([2]; 50 nM CDK12-cyclin K, compound 2001.6 nM): 2.6928
TR-FRET signal, individual replicate ([3]; compound concentration 0.468 nM): 0.2708 and 0.2758 and 0.8924 and 0.6371
TR-FRET signal, individual replicate ([3]; compound concentration 2.16 nM): 0.3875 and 0.4113 and 0.3298 and 0.5644
TR-FRET signal, individual replicate ([3]; compound concentration 3.6 nM): 0.6563 and 0.6817 and 0.5785 and 0.7591
TR-FRET signal, individual replicate ([3]; compound concentration 7.92001 nM): 1.219 and 1.2973 and 0.9793 and 1.183
TR-FRET signal, individual replicate ([3]; compound concentration 15.84 nM): 2.2073 and 2.2521 and 2.043 and 2.171
TR-FRET signal, individual replicate ([3]; compound concentration 30.96 nM): 3.25 and 3.347 and 3.281 and 3.173
TR-FRET signal, individual replicate ([3]; compound concentration 62.6401 nM): 3.39 and 3.868 and 3.793 and 3.73
TR-FRET signal, individual replicate ([3]; compound concentration 125.28 nM): 3.865 and 4.101 and 4.033 and 4.091
TR-FRET signal, individual replicate ([3]; compound concentration 244.8 nM): 3.936 and 4.169 and 4.142 and 4.064
TR-FRET signal, individual replicate ([3]; compound concentration 993.601 nM): 4.054 and 4.241 and 4.216 and 4.146
TR-FRET signal, individual replicate ([3]; compound concentration 2001.6 nM): 3.9849 and 4.219 and 4.148 and 4.067
DDB1–CDK12 complex formation, result in words ([3]; in vitro TR-FRET): activity equivalent to CR8
EC50 ([3]; in vitro complex formation, 50 nM CDK12–cyclin K, 100 nM DDB1, text and figures, read-out: TR-FRET EC50): 0.017 ± 0.001 µM
EC50 ([3]; sheet MOESM7, read-out: log TR-FRET EC50 (converted)): 0.0167 µM
EC50 ([3]; source data sheet correlations, read-out: TR-FRET EC50): 0.0167 µM
DC50 [4]: 1.03 µM
